Data published in PubChem BioAssay (NCI).
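Cells were grown in 96-well plates and exposed to each compound for 48 hours at five concentrations; endpoints were interpolated linearly between bracketing concentrations, or set to the highest concentration if not reached. At the TGI there is no net growth.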

Tested on: SF-268 CNS
Test: DTP human tumour cell line panel, 48 h

SMILES | TGI [µM]
Cc1ccc(Nc2nc(=O)c3c4ccccc4n(C(=O)OC(C)(C)C)c3s2)cc1 | 59.3
N#Cc1cccc2c1Sc1ccccc1N2 | > 100
NC1c2c(Br)sc(N3CCCC3)c2C(=O)C1O (stereo not drawn) | > 50
CSC1=C(C#N)C(=S)N=C(N)C1C(=O)Nc1ccc(C)cc1 (stereo not drawn) | > 100
C/C=C/C(C#N)(/C=C/c1ccccc1)OP1(=O)OC(c2ccccc2)C(C)N1C (stereo not drawn) | 42.1
COc1ccc2c(c1)CC[C@@H]1[C@@H]2CC[C@]2(C)C(=O)/C(=C/c3ccc(N(C)C)cc3)C[C@@H]12 | 89.9
CN(C)CCCN1c2ccc([N+](=O)[O-])cc2CCc2cccc([N+](=O)[O-])c21 | 29
Cc1cc(=O)[nH]c(NNC(C#N)c2cccc(O)c2)n1 (stereo not drawn) | > 100
CCOC(=O)c1c(SC(=O)c2ccc(C(C)(C)C)cc2)n(-c2ccccc2)c(=S)n(-c2ccccc2)c1=O | > 100
CSCCCN(CCCSC)CCCSC | > 100
COc1cc(-c2ccc(Br)[nH]2)[nH]c1C=NCC(C)C | 9.1
Cc1ccc(-c2n[nH]c(Cc3nc(-c4ccc(C)cc4)n[nH]3)n2)cc1 | > 100
CN(CC(=O)N1CC(CCl)c2ccc([N+](=O)[O-])cc21)CC(=O)N1CC(CCl)c2ccc([N+](=O)[O-])cc21 (stereo not drawn) | > 100
Cc1c2n(c(=O)[nH]c1=O)C1OC(CO)C(O2)C1N=[N+]=[N-] (stereo not drawn) | > 100
CCOC(=O)c1ncn2c1[nH]c(=S)c1ccccc12 | > 100
O=C(O)CCC(NC(=O)c1ccc(OCc2nc3cc(C(F)(F)F)ccc3nc2-c2ccccc2)cc1)C(=O)O (stereo not drawn) | > 100
COc1ccc(-c2cc(=O)c3ccc(O)cc3o2)c(OC)c1OC | > 100
CC(=O)NC1=C(NCC(C)(C)C)C(=O)c2ccccc2C1=O | > 100
COc1cc2c(c(OC)c1O)-c1ccc(SC)c(=O)cc1C(NC(C)=O)CC2 (stereo not drawn) | > 100
CC(=O)c1cccc(Nc2nc3ccccc3c3occc23)c1 | 86.7
O=C(CSC(=S)N1CCCCC1)Nc1nc2c(s1)CCCC2 | > 100

Tested on: MCF7 breast
Test: DTP human tumour cell line panel, 48 h

SMILES | TGI [µM]
COc1ccc(/C=c2/sc3n(c2=O)C(c2ccccc2)C2(O)CCCCC2N=3)cc1 (stereo not drawn) | > 12.5
C=CC[C@H]1O[Si](C(C)(C)C)(C(C)(C)C)[C@H](C)[C@H]1C | > 100
N#Cc1cccc2c1Sc1ccccc1N2 | > 100
NC1c2c(Br)sc(N3CCCC3)c2C(=O)C1O (stereo not drawn) | > 50
C/C=C/C(C#N)(/C=C/c1ccccc1)OP1(=O)OC(c2ccccc2)C(C)N1C (stereo not drawn) | 49.4
CCOC(=O)c1c(SC(=O)c2ccc(C(C)(C)C)cc2)n(-c2ccccc2)c(=S)n(-c2ccccc2)c1=O | > 100
CSCCCN(CCCSC)CCCSC | > 100
COc1cc(-c2ccc(Br)[nH]2)[nH]c1C=NCC(C)C | 2.47
Cc1ccc(-c2n[nH]c(Cc3nc(-c4ccc(C)cc4)n[nH]3)n2)cc1 | > 100
CN(CC(=O)N1CC(CCl)c2ccc([N+](=O)[O-])cc21)CC(=O)N1CC(CCl)c2ccc([N+](=O)[O-])cc21 (stereo not drawn) | > 100
O=C(O)CCC(NC(=O)c1ccc(OCc2nc3cc(C(F)(F)F)ccc3nc2-c2ccccc2)cc1)C(=O)O (stereo not drawn) | > 100
C=CCC1(O)CC(n2cc(C)c(=O)[nH]c2=O)OC1CO[Si](C)(C)C(C)(C)C (stereo not drawn) | > 100
COc1c2c(cc3c1C(=O)c1c(O)cccc1C3=O)CC(O)CC2 (stereo not drawn) | > 100
CC(=O)c1cccc(Nc2nc3ccccc3c3occc23)c1 | > 100

Tested on: SK-MEL-5 melanoma
Test: DTP human tumour cell line panel, 48 h

SMILES | TGI [µM]
COc1ccc(/C=c2/sc3n(c2=O)C(c2ccccc2)C2(O)CCCCC2N=3)cc1 (stereo not drawn) | > 12.5
CCN(CC)c1ccc2cc(C(N)=O)c(=N)oc2c1 | > 100
Cc1ccc2c(c1)[nH]c(=S)n2C=C(C(N)=O)C(N)=O | > 100
C=CC[C@H]1O[Si](C(C)(C)C)(C(C)(C)C)[C@H](C)[C@H]1C | > 100
Cc1ccc(Nc2nc(=O)c3c4ccccc4n(C(=O)OC(C)(C)C)c3s2)cc1 | 27
N#Cc1cccc2c1Sc1ccccc1N2 | 1.72
NC1c2c(Br)sc(N3CCCC3)c2C(=O)C1O (stereo not drawn) | > 50
CSC1=C(C#N)C(=S)N=C(N)C1C(=O)Nc1ccc(C)cc1 (stereo not drawn) | > 100
C/C=C/C(C#N)(/C=C/c1ccccc1)OP1(=O)OC(c2ccccc2)C(C)N1C (stereo not drawn) | 32.1
COc1ccc2c(c1)CC[C@@H]1[C@@H]2CC[C@]2(C)C(=O)/C(=C/c3ccc(N(C)C)cc3)C[C@@H]12 | > 100
CN(C)CCCN1c2ccc([N+](=O)[O-])cc2CCc2cccc([N+](=O)[O-])c21 | 30.2
Cc1cc(=O)[nH]c(NNC(C#N)c2cccc(O)c2)n1 (stereo not drawn) | > 100
CSCCCN(CCCSC)CCCSC | > 100
COc1cc(-c2ccc(Br)[nH]2)[nH]c1C=NCC(C)C | 2.87
Cc1ccc(-c2n[nH]c(Cc3nc(-c4ccc(C)cc4)n[nH]3)n2)cc1 | > 100
CN(CC(=O)N1CC(CCl)c2ccc([N+](=O)[O-])cc21)CC(=O)N1CC(CCl)c2ccc([N+](=O)[O-])cc21 (stereo not drawn) | > 100
Cc1c2n(c(=O)[nH]c1=O)C1OC(CO)C(O2)C1N=[N+]=[N-] (stereo not drawn) | > 100
CCOC(=O)c1ncn2c1[nH]c(=S)c1ccccc12 | > 100
C=CCC1(O)CC(n2cc(C)c(=O)[nH]c2=O)OC1CO[Si](C)(C)C(C)(C)C (stereo not drawn) | > 100
NC1CC(=O)c2cscc21 (stereo not drawn) | > 100
CC(=O)NC1=C(NCC(C)(C)C)C(=O)c2ccccc2C1=O | > 100
COc1c2c(cc3c1C(=O)c1c(O)cccc1C3=O)CC(O)CC2 (stereo not drawn) | > 100
COc1cc2c(c(OC)c1O)-c1ccc(SC)c(=O)cc1C(NC(C)=O)CC2 (stereo not drawn) | 0.0361
CC(=O)c1cccc(Nc2nc3ccccc3c3occc23)c1 | 48.6
O=C(CSC(=S)N1CCCCC1)Nc1nc2c(s1)CCCC2 | 32.9

Tested on: SF-539 CNS
Test: DTP human tumour cell line panel, 48 h

SMILES | TGI [µM]
CCN(CC)c1ccc2cc(C(N)=O)c(=N)oc2c1 | > 100
Cc1ccc2c(c1)[nH]c(=S)n2C=C(C(N)=O)C(N)=O | > 100
C=CC[C@H]1O[Si](C(C)(C)C)(C(C)(C)C)[C@H](C)[C@H]1C | > 100
Cc1ccc(Nc2nc(=O)c3c4ccccc4n(C(=O)OC(C)(C)C)c3s2)cc1 | 79.8
N#Cc1cccc2c1Sc1ccccc1N2 | 64.2
NC1c2c(Br)sc(N3CCCC3)c2C(=O)C1O (stereo not drawn) | > 50
CSC1=C(C#N)C(=S)N=C(N)C1C(=O)Nc1ccc(C)cc1 (stereo not drawn) | > 100
C/C=C/C(C#N)(/C=C/c1ccccc1)OP1(=O)OC(c2ccccc2)C(C)N1C (stereo not drawn) | 35.1
COc1ccc2c(c1)CC[C@@H]1[C@@H]2CC[C@]2(C)C(=O)/C(=C/c3ccc(N(C)C)cc3)C[C@@H]12 | > 100
CN(C)CCCN1c2ccc([N+](=O)[O-])cc2CCc2cccc([N+](=O)[O-])c21 | 31.5
Cc1cc(=O)[nH]c(NNC(C#N)c2cccc(O)c2)n1 (stereo not drawn) | > 100
CCOC(=O)c1c(SC(=O)c2ccc(C(C)(C)C)cc2)n(-c2ccccc2)c(=S)n(-c2ccccc2)c1=O | > 100
CSCCCN(CCCSC)CCCSC | > 100
COc1cc(-c2ccc(Br)[nH]2)[nH]c1C=NCC(C)C | 5.84
Cc1ccc(-c2n[nH]c(Cc3nc(-c4ccc(C)cc4)n[nH]3)n2)cc1 | > 100
CN(CC(=O)N1CC(CCl)c2ccc([N+](=O)[O-])cc21)CC(=O)N1CC(CCl)c2ccc([N+](=O)[O-])cc21 (stereo not drawn) | > 100
Cc1c2n(c(=O)[nH]c1=O)C1OC(CO)C(O2)C1N=[N+]=[N-] (stereo not drawn) | > 100
CCOC(=O)c1ncn2c1[nH]c(=S)c1ccccc12 | > 100
O=C(O)CCC(NC(=O)c1ccc(OCc2nc3cc(C(F)(F)F)ccc3nc2-c2ccccc2)cc1)C(=O)O (stereo not drawn) | > 100
COc1ccc(-c2cc(=O)c3ccc(O)cc3o2)c(OC)c1OC | > 100
C=CCC1(O)CC(n2cc(C)c(=O)[nH]c2=O)OC1CO[Si](C)(C)C(C)(C)C (stereo not drawn) | > 100
NC1CC(=O)c2cscc21 (stereo not drawn) | > 100
CC(=O)NC1=C(NCC(C)(C)C)C(=O)c2ccccc2C1=O | > 100
COc1c2c(cc3c1C(=O)c1c(O)cccc1C3=O)CC(O)CC2 (stereo not drawn) | > 100
CC(=O)c1cccc(Nc2nc3ccccc3c3occc23)c1 | 35.6
O=C(CSC(=S)N1CCCCC1)Nc1nc2c(s1)CCCC2 | > 100

Tested on: UACC-257 melanoma
Test: DTP human tumour cell line panel, 48 h

SMILES | TGI [µM]
COc1ccc(/C=c2/sc3n(c2=O)C(c2ccccc2)C2(O)CCCCC2N=3)cc1 (stereo not drawn) | > 12.5
CCN(CC)c1ccc2cc(C(N)=O)c(=N)oc2c1 | > 100
Cc1ccc2c(c1)[nH]c(=S)n2C=C(C(N)=O)C(N)=O | > 100
C=CC[C@H]1O[Si](C(C)(C)C)(C(C)(C)C)[C@H](C)[C@H]1C | > 100
Cc1ccc(Nc2nc(=O)c3c4ccccc4n(C(=O)OC(C)(C)C)c3s2)cc1 | > 100
N#Cc1cccc2c1Sc1ccccc1N2 | > 100
NC1c2c(Br)sc(N3CCCC3)c2C(=O)C1O (stereo not drawn) | > 50
CSC1=C(C#N)C(=S)N=C(N)C1C(=O)Nc1ccc(C)cc1 (stereo not drawn) | > 100
C/C=C/C(C#N)(/C=C/c1ccccc1)OP1(=O)OC(c2ccccc2)C(C)N1C (stereo not drawn) | 35.1
CN(C)CCCN1c2ccc([N+](=O)[O-])cc2CCc2cccc([N+](=O)[O-])c21 | 27.6
Cc1cc(=O)[nH]c(NNC(C#N)c2cccc(O)c2)n1 (stereo not drawn) | > 100
CCOC(=O)c1c(SC(=O)c2ccc(C(C)(C)C)cc2)n(-c2ccccc2)c(=S)n(-c2ccccc2)c1=O | > 100
CSCCCN(CCCSC)CCCSC | > 100
COc1cc(-c2ccc(Br)[nH]2)[nH]c1C=NCC(C)C | 5.34
Cc1ccc(-c2n[nH]c(Cc3nc(-c4ccc(C)cc4)n[nH]3)n2)cc1 | > 100
CN(CC(=O)N1CC(CCl)c2ccc([N+](=O)[O-])cc21)CC(=O)N1CC(CCl)c2ccc([N+](=O)[O-])cc21 (stereo not drawn) | > 100
Cc1c2n(c(=O)[nH]c1=O)C1OC(CO)C(O2)C1N=[N+]=[N-] (stereo not drawn) | > 100
CCOC(=O)c1ncn2c1[nH]c(=S)c1ccccc12 | > 100
O=C(O)CCC(NC(=O)c1ccc(OCc2nc3cc(C(F)(F)F)ccc3nc2-c2ccccc2)cc1)C(=O)O (stereo not drawn) | > 100
COc1ccc(-c2cc(=O)c3ccc(O)cc3o2)c(OC)c1OC | > 100
C=CCC1(O)CC(n2cc(C)c(=O)[nH]c2=O)OC1CO[Si](C)(C)C(C)(C)C (stereo not drawn) | > 100
NC1CC(=O)c2cscc21 (stereo not drawn) | > 100
CC(=O)NC1=C(NCC(C)(C)C)C(=O)c2ccccc2C1=O | > 100
COc1c2c(cc3c1C(=O)c1c(O)cccc1C3=O)CC(O)CC2 (stereo not drawn) | > 100
COc1cc2c(c(OC)c1O)-c1ccc(SC)c(=O)cc1C(NC(C)=O)CC2 (stereo not drawn) | > 100
CC(=O)c1cccc(Nc2nc3ccccc3c3occc23)c1 | > 100
O=C(CSC(=S)N1CCCCC1)Nc1nc2c(s1)CCCC2 | 57.7
